According to BigSolDB 2.1:

COC(=O)C(C)(C)N=NC(C)(C)C(=O)OC
Settings	solubility (mole fraction)
in ethyl acetate, 285.65 K	0.558
in ethyl acetate, 288.05 K	0.611
in ethyl acetate, 290.55 K	0.668
in ethyl acetate, 293.25 K	0.744
in isobutanol, 252.65 K	0.0055
in isobutanol, 256.55 K	0.0084
in isobutanol, 259.45 K	0.0111
in isobutanol, 262.95 K	0.013
in isobutanol, 265.65 K	0.0155
in isobutanol, 269.35 K	0.0205
in isobutanol, 273.55 K	0.0388
in isobutanol, 275.95 K	0.0587
in isobutanol, 278.15 K	0.0813
in isobutanol, 280.65 K	0.122
in isobutanol, 283.45 K	0.194
in isobutanol, 285.75 K	0.279
in isobutanol, 288.05 K	0.355
in isobutanol, 290.95 K	0.521
in isobutanol, 293.15 K	0.643
in isopropanol, 252.05 K	0.0065
in isopropanol, 256.25 K	0.0081
in isopropanol, 258.95 K	0.01
in isopropanol, 262.45 K	0.0141
in isopropanol, 265.75 K	0.0199
in isopropanol, 268.75 K	0.0272
in isopropanol, 273.35 K	0.0484
in isopropanol, 275.45 K	0.0653
in isopropanol, 278.05 K	0.0853
in isopropanol, 280.75 K	0.137
in isopropanol, 283.15 K	0.189
in isopropanol, 285.45 K	0.26
in isopropanol, 287.95 K	0.345
in isopropanol, 290.85 K	0.5
in isopropanol, 293.15 K	0.627
in methanol, 252.95 K	0.0142
in methanol, 255.35 K	0.0156
in methanol, 257.65 K	0.0169
in methanol, 261.55 K	0.0203
in methanol, 265.35 K	0.0253
in methanol, 267.15 K	0.0308
in methanol, 273.55 K	0.0633
in methanol, 275.85 K	0.0722
in methanol, 278.65 K	0.0863
in methanol, 280.65 K	0.122
in methanol, 283.05 K	0.182
in methanol, 285.55 K	0.248
in methanol, 288.15 K	0.364
in methanol, 290.65 K	0.482
in methanol, 293.15 K	0.626
in n-butanol, 252.35 K	0.0064
in n-butanol, 256.35 K	0.0076
in n-butanol, 259.15 K	0.0091
in n-butanol, 262.55 K	0.0111
in n-butanol, 265.55 K	0.0145
in n-butanol, 269.75 K	0.0232
in n-butanol, 273.65 K	0.0385
in n-butanol, 276.15 K	0.0541
in n-butanol, 278.35 K	0.0801
in n-butanol, 281.15 K	0.123
in n-butanol, 283.55 K	0.18
in n-butanol, 285.65 K	0.251
in n-butanol, 288.15 K	0.33
in n-butanol, 291.05 K	0.486
in n-butanol, 293.15 K	0.63
in n-propanol, 253.35 K	0.0088
in n-propanol, 257.05 K	0.0107
in n-propanol, 259.65 K	0.0133
in n-propanol, 262.15 K	0.0162
in n-propanol, 266.25 K	0.0234
in n-propanol, 271.05 K	0.0385
in n-propanol, 274.95 K	0.0613
in n-propanol, 276.65 K	0.0783
in n-propanol, 278.85 K	0.098
in n-propanol, 281.15 K	0.125
in n-propanol, 283.55 K	0.173
in n-propanol, 286.15 K	0.25
in n-propanol, 288.45 K	0.352
in n-propanol, 291.05 K	0.47
in n-propanol, 293.15 K	0.611
in tetrachloromethane, 252.55 K	0.109
in tetrachloromethane, 256.95 K	0.125
in tetrachloromethane, 260.35 K	0.144
in tetrachloromethane, 264.05 K	0.182
in tetrachloromethane, 266.85 K	0.214
in tetrachloromethane, 269.55 K	0.242
in tetrachloromethane, 273.65 K	0.314
in tetrachloromethane, 276.15 K	0.349
in tetrachloromethane, 278.45 K	0.393
in tetrachloromethane, 280.75 K	0.445
in tetrachloromethane, 283.35 K	0.506
in tetrachloromethane, 285.75 K	0.564
in tetrachloromethane, 288.15 K	0.632
in tetrachloromethane, 290.55 K	0.696
in toluene, 253.45 K	0.104
in toluene, 256.35 K	0.119
in toluene, 259.55 K	0.141
in toluene, 262.55 K	0.161
in toluene, 264.85 K	0.184
in toluene, 269.55 K	0.237
in toluene, 273.65 K	0.286
in toluene, 276.05 K	0.326
in toluene, 278.25 K	0.367
in toluene, 280.65 K	0.41
in toluene, 283.15 K	0.47
in toluene, 285.55 K	0.545
in toluene, 288.05 K	0.597
in toluene, 290.95 K	0.67
in toluene, 293.15 K	0.731
